According to patent publication US4714711A, “6-hydroxy-2(2-hydroxy-4-methoxyphenyl)benzofuran derivatives to inhibit leukotriene biosynthesis” (Merck & Co., Inc., priority 1986, dated 1987):
Values after ≈ are worked out from the molar mass of the structure shown.

What was measured:
thromboxane B2 = test: Inhibition of CXBG prostoglandin (thromboxane B2) production (A23187-stimulated, enzyme immunoassay); assay type: cell-based, mice; details: Mus musculus; CXBG cells, 2×10^6 cells/ml, inhibitor 5 minutes at 37°, A23187 stimulation 10 minutes; read-out: IC50 (μg/ml) Tx B2
Protocol: (§1) Representative compounds of Formula I have been tested using the following assay to determine their mammalian leukotriene biosynthesis inhibiting activity and other relevant activities:
(§2) CXBG cells grown intraperitoneally in CB4 B6 /F1 /J mice were washed 5 times in Dulbeccos phosphate buffered saline without calcium or magnesium, suspended in medium 199 (Gibco) at 2×10^6 cells/ml, and incubated 15 minutes at 37°. Inhibitor solutions in methanol were incubated with the cells (10μl/600 μl cells), for 5 minutes at 37°, and the cells were stimulated with 60 μl A23187 (50 μg/ml) for 10 minutes at 37°. Aliquots were removed for measurement of leukotriene C4 or thromboxane B2 by enzyme immunoassay as previously reported (D. K. Miller, et al., J. Immunological Methods, 81, 169-185, 1985). The percentage inhibition was calculated by the following: [formula]

leukotriene C4 = test: Inhibition of CXBG leukotriene production (A23187-stimulated, enzyme immunoassay); assay type: cell-based, mice; details: Mus musculus; CXBG cells, 2×10^6 cells/ml, inhibitor 5 minutes at 37°, A23187 stimulation 10 minutes; read-out: IC50 (μg/ml) LTC4
Protocol: as §1, §2

Compound	IC50 (thromboxane B2) [µg/mL]	IC50 (leukotriene C4) [µg/mL]
COc1ccc(-c2cc3cc(O)ccc3o2)c(O)c1 [5-hydroxy-2-(2-hydroxy-4-methoxyphenyl)benzofuran]	0.5 (≈ 1.95 µM)	0.75 (≈ 2.93 µM)
COc1cc(O)ccc1-c1cc2ccc(O)cc2o1 [6-hydroxy-2-(2-methoxy-4-hydroxyphenyl)benzofuran]	1 (≈ 3.9 µM)	0.028 (≈ 0.109 µM)
COc1ccc(-c2cc3ccc(O)cc3o2)c(O)c1 [6-hydroxy-2-(hydroxy-4-methoxyphenyl)benzofuran]	0.3 (≈ 1.17 µM)	0.013 (≈ 0.0507 µM)
